The values that follow come from US9801844B2, “Methods and compositions for the treatment of cancer” (priority 2012, dated 2017).

Assay [1] has as its system SKOV3 (Her2 overexpressing) human ovarian cancer cells. Put plainly: MTT cell proliferation assay on SKOV3 cells. The following applies: SKOV3, 96 h. The format is cell-based. As for the experimental part:
SKOV3 (Her2 overexpressing) ovarian cancer cells (ATCC, Manassas, Va.), were grown in McCoy's media (Gibco BRL Life Technologies, Inc., Rockville, Md.) containing 10% (v/v) fetal bovine serum (FBS) (Gibco BRL) at 37° C., 5% C02, plus Penn-Strep (Sigma).
The MTT [3-(4,5-dimethyl-2-thiazol)-2,5-diphenyl-2H tetrazolilum bromide] (Dojindo; Tokyo, Japan) cell proliferation assay system (Roche Diagnostic, Mannheim, Germany) was used to determine the sensitivity of the cell lines to agents. Cells were seeded at 1×10^4 cells/well in 96-well plates and allowed to attach for 24 h. The medium was replaced with fresh medium containing DMSO or compound. The cells were treated for 96 h, after which the media was replaced with fresh media; the cells were incubated with MTT reagents and the absorbance read at 650 and 575 nm. The 650 reading was subtracted from the 575 reading to correct for background absorbance.
(Formazan colour is commonly taken as a measure of viable cells.)

For assay [2], the system named is MDA-MB-468 triple negative breast cancer cells. Nature of the assay: MTT cell proliferation assay on MDA-MB-468 cells. The format is cell-based, human. The following applies: for IC50: read-out: IC50 growth inhibition. As for the experimental part:
MDA-MB-453 (ER negative, Her2 overexpressing), MDA-MB-468 (triple negative) and MCF7 (ER positive, Her2 low) cells, HT29 (p53 positive human colon cancer cells) (ATCC, Manassas, Va.) were grown in Dulbecco's Modified Eagle's medium (DMEM) (Gibco BRL Life Technologies, Inc., Rockville, Md.) containing 10% (v/v) fetal bovine serum (FBS) (Gibco BRL) at 37° C., 5% C02. SUM 149 (Her2 overexpressing, ER low) (the gift of Dr. R. Parsons, Columbia University Medical Center, New York, N.Y.) were cultivated in Ham's F-12 medium with 10% FBS. MCF7 and MCF7/Her2-18 (MCF7 cells transfected with a full length Her2 cDNA coding region, 45-fold increase Her2) were the kind gift of Dr. Dennis Slamon (Los Angeles, Calif.). These cells were maintained in RPMI supplemented with 10% FBS plus glutamine (1%) and PSF (1%) (Gibco, Rockville Md.).
MTT assay: the MTT {3-(4,5-dimethyl-2-thiazol)-2,5-diphenyl-2H tetrazolilum bromide} (Dojindo; Tokyo, Japan) cell proliferation assay system (Roche Diagnostic, Mannheim, Germany) was used to determine the sensitivity of the various cell lines to agents. Cells were seeded at 1×10^4 cells/well in 96-well plates and allowed to attach for 24 h. The medium was replaced with fresh medium containing DMSO or compound. The cells were treated for 96 or 120 h, after which they were incubated with MTT reagents and the absorbance read at 650 and 575 nm. For cell growth assays, the data are expressed as mean+/−standard deviation. Control and treated cells were compared using the student's t-test (p<0.05).
To determine the Combination Index (CI), cells were treated with all combinations of 4 or 5 concentrations of each of the agents tested and a solvent control. The results of the MTT assay were analyzed for possible synergistic effects using the median effect principle. Variable ratios of drugs were employees and mutually exclusive equations were assumed.

The mark [3] stands for this setting: MDA-MB-468 cells, MTT assay, listed as CA.

Each structure is given as a SMILES string. Where “and” joins values, the source holds several entries; their conditions need not be identical. Equal entries are not always repeated. Where two headings read alike, the source gives them in different places.

For the compound `CC(C)c1cc2c(c(O)c1O)[C@@]1(C(=O)O)CCCC(C)(C)[C@@H]1CC2` [carnosic acid], the “% cell proliferation” value in assay [1] (5 μg/ml) came out at 105.3%; in assay [1] (10 μg/ml), 56.7%; in assay [1] (15 μg/ml) it was 8.1%; in assay [1] (20 μg/ml), 6.7%. The IC50 in assay [1] (Homo sapiens, SK-OV-3, MTT, read-out: IC50, concentration that caused 50% inhibition of cell growth) was ~10.5 µg/mL and ~31.6 µM; in assay [2] (Homo sapiens, MDA-MB-468, MDA-MB-468 cells, MTT assay), 2 µg/mL and 6 µM; in assay [2] (setting [3]) it was 9 µM. Also, the viability at 6 µM in assay [2] (Homo sapiens, MDA-MB-468, CA 2 μg/ml (6 μM) alone, read-out: percent viable cells) was determined as 89.4%. Also, the IC50 growth inhibition in assay [2] (setting [3]) was determined as 3 µg/mL.
